Test systems include 786-0 renal; A498 renal; MDA-MB-435; NCI-H522 lung; OVCAR-4 ovarian; RPMI-8226 leukemia; SF-295 CNS; SF-539 CNS; SNB-75 CNS; T-47D breast.
Holding throughout (test): NCI anticancer screen, dose series, 48 h

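Where inhibition never reached the appropriate level, the endpoint shown equals the highest concentration tested. Otherwise, values were interpolated linearly from a five-concentration, 48-hour dose response in 96-well plates. Definition used: TGI = concentration required for complete inhibition of growth.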 Where only a bound is given, the exact number is not on record here.

Take `Cn1cc2c(=O)n3ncn(-c4ccc(Br)cc4)c3nc2n1`: the TGI with 786-0 renal, in the experiment with A498 renal, in the experiment with MDA-MB-435, with NCI-H522 lung, in the experiment on OVCAR-4 ovarian and in the experiment with RPMI-8226 leukemia was over 100 µM in each case. Also, the TGI with SF-295 CNS, in the experiment with SF-539 CNS, in the experiment with SNB-75 CNS and in the experiment on T-47D breast was over 100 µM each time.

Take `CC(NC(=O)/C(C#N)=C/c1ccc2[nH]ccc2c1)c1ccccc1` (centres undefined): the TGI was 31.8 µM in the experiment on 786-0 renal; 32.1 µM with A498 renal; 31.1 µM with MDA-MB-435; 25.7 µM with NCI-H522 lung; 49.5 µM in the experiment with OVCAR-4 ovarian; over 73.1 µM in the experiment on RPMI-8226 leukemia. For the same compound, the TGI with SF-295 CNS came out at 35.4 µM; in the experiment with SF-539 CNS it was 34.9 µM; in the experiment with SNB-75 CNS, 60.5 µM; with T-47D breast it was 51 µM.

As for `CC(=O)NCC1(c2ccccc2)CCN(CC2COc3ccccc3O2)CC1` (centres undefined), the TGI in the experiment on 786-0 renal, in the experiment with A498 renal, in the experiment on MDA-MB-435, in the experiment with NCI-H522 lung, with OVCAR-4 ovarian and in the experiment on RPMI-8226 leukemia was over 100 µM each time. The TGI in the experiment on SF-295 CNS, in the experiment with SF-539 CNS, with SNB-75 CNS and in the experiment with T-47D breast was over 100 µM each time.

For `C[C@@H]1C[C@@H](O)[C@@]2(O)C13CC(=O)OC(C3)[C@@H](C)[C@@]2(C)CO` (some centres undefined), the TGI with 786-0 renal, in the experiment with A498 renal, in the experiment with MDA-MB-435, in the experiment on NCI-H522 lung, in the experiment with OVCAR-4 ovarian and with RPMI-8226 leukemia was over 100 µM throughout. The TGI in the experiment on SF-295 CNS, with SF-539 CNS and with T-47D breast was over 100 µM in each case.

In the case of `COc1cc(C)cc2c1C(=O)C(Br)=CC2=O`, the TGI in the experiment on 786-0 renal was found to be 8.16 µM; with A498 renal, 34.5 µM; in the experiment on MDA-MB-435, 5.68 µM; in the experiment with NCI-H522 lung it was 3.19 µM; with OVCAR-4 ovarian, 7.71 µM; in the experiment on SF-295 CNS it was 30 µM. Also, the TGI amounted to 28.5 µM in the experiment on SF-539 CNS, 31.7 µM in the experiment with SNB-75 CNS and 4.75 µM with T-47D breast.

Regarding `COc1ccc(-c2c3c(n(C4OC(CO)C(O)C(O)C4O)c(=S)c2C#N)CC(C)(C)CC3=O)cc1` (centres undefined), the TGI in the experiment on 786-0 renal, in the experiment on A498 renal, in the experiment with MDA-MB-435, with NCI-H522 lung, with OVCAR-4 ovarian and in the experiment with RPMI-8226 leukemia was over 100 µM in each case. For the same compound, the TGI in the experiment with SF-295 CNS, with SF-539 CNS, in the experiment on SNB-75 CNS and in the experiment with T-47D breast was over 100 µM throughout.

Regarding `COC(=O)C(/C(=N/N)C(=O)Nc1cc(Cl)c(Cl)cc1Cl)c1nc2ccc(Cl)cc2[nH]c1=O` (centres undefined), the TGI in the experiment with 786-0 renal, in the experiment on A498 renal, in the experiment on MDA-MB-435, in the experiment on NCI-H522 lung, in the experiment with OVCAR-4 ovarian and with RPMI-8226 leukemia was over 100 µM throughout. For the same compound, the TGI with SF-295 CNS, in the experiment with SF-539 CNS, with SNB-75 CNS and in the experiment on T-47D breast was over 100 µM in each case.

For `CS(=O)(=O)c1[nH]nc2[nH]c(=O)[nH]c(=O)c12`, the TGI with 786-0 renal, with A498 renal, in the experiment with MDA-MB-435, in the experiment with NCI-H522 lung, in the experiment on OVCAR-4 ovarian and in the experiment on SF-295 CNS was over 10 µM in each case. Also, the TGI with SF-539 CNS, with SNB-75 CNS and in the experiment on T-47D breast was over 10 µM each time.

`CC1(C)CCCCCCCCCC(C)(CCCO)C1=O` (centres undefined): the TGI was 30.7 µM with 786-0 renal; 33.1 µM in the experiment on A498 renal; 34 µM in the experiment on MDA-MB-435; 29.7 µM with NCI-H522 lung; 29 µM in the experiment on OVCAR-4 ovarian; 84.8 µM in the experiment on RPMI-8226 leukemia. The figures for the TGI with SF-295 CNS, with SNB-75 CNS and in the experiment with T-47D breast were 32.7 µM, 31.9 µM and 29.3 µM, respectively.

Consider `COc1ccc2c(c1)N(C(C)=O)CN1C(=O)CCC21` (centres undefined), for which the TGI with 786-0 renal, with A498 renal, in the experiment with MDA-MB-435, with NCI-H522 lung, in the experiment with OVCAR-4 ovarian and in the experiment on RPMI-8226 leukemia was over 100 µM each time. Besides, the TGI in the experiment on SF-295 CNS, in the experiment with SF-539 CNS, in the experiment with SNB-75 CNS and in the experiment with T-47D breast was over 100 µM throughout.

Consider `O=c1oc2cc(O)ccc2c(O)c1C(c1ccccn1)c1c(O)c2ccc(O)cc2oc1=O`, for which the TGI in the experiment on 786-0 renal, in the experiment with A498 renal, in the experiment on MDA-MB-435, in the experiment with NCI-H522 lung, in the experiment with RPMI-8226 leukemia and in the experiment with SF-295 CNS was over 100 µM throughout. Also, the TGI in the experiment with SF-539 CNS, with SNB-75 CNS and in the experiment on T-47D breast was over 100 µM in each case.

Take `COc1ccc(Nc2nc(N)c(C(=O)c3ccc(OC)cc3)s2)cc1`: the TGI with 786-0 renal is over 41.9 µM; with A498 renal, over 64.7 µM; in the experiment with MDA-MB-435 it was 0.208 µM; in the experiment on NCI-H522 lung, 0.455 µM; with OVCAR-4 ovarian, over 100 µM; in the experiment on RPMI-8226 leukemia, 0.659 µM. In addition, the TGI with SF-295 CNS was 40.6 µM; in the experiment on SF-539 CNS it was 23 µM; in the experiment with SNB-75 CNS it was 6.26 µM; with T-47D breast, over 100 µM.

With `CN(C)c1ccc(/C=C2\N=C(N/N=C/c3ccccc3)NC2=O)cc1`, the TGI with 786-0 renal, in the experiment with A498 renal, with MDA-MB-435, with NCI-H522 lung, with OVCAR-4 ovarian and with RPMI-8226 leukemia was over 100 µM throughout. In addition, the TGI in the experiment on SF-295 CNS, with SNB-75 CNS and with T-47D breast was over 100 µM throughout.

The values above are taken from PubChem BioAssay (NCI).
